Laboratory results reported in patent EP0411184B1, “Ascorbic acid derivative” (NIPPON HYPOX LABORATORIES INCORPORATED, priority 1989, dated 1991).

Assay: Antioxidant action using stable radicals: reduction activity of DPPH (M. S. Blois method)
Type: biochemical
Conditions: 0.1 mM DPPH solution in ethanol, absorbance at 517 nm after 20 minutes, difference from solvent control (0.5% or less DMF); read-out: 50% radical eliminating concentration
Protocol: Test example 1 (Antioxidant action examined by using stable radicals)
Reduction activity of α,α-diphenyl-β-picrylhydrazyl (DPPH) which was a stable free radical was examined according to the M. S. Blois method (Nature, vol. 181, page 1199, 1958) and used as an index to antioxidant action. Thus, specimens were added to 3 mℓ of a 0.1 mM DPPH solution in ethanol, and absorbance at a wavelength of 517 nm was measured using a spectrophotometer after 20 minutes. The difference in absorbance from the solvent control [0.5% or less of dimethylformamide (DMF)] was taken as the reduction activity.

| SMILES | IC50 [µM] |
| --- | --- |
| CCCCCCCCCCCCCCCCCCOC1=C(O)C(=O)O[C@@H]1[C@@H](O)CO [compound 101, reference compound] | 32 |
| CCCCCCCCCCCCOC1=C(O)C(=O)O[C@@H]1[C@@H](O)CO [compound 102] | 18 |
| CCCCCCCCOC1=C(O)C(=O)O[C@@H]1[C@@H](O)CO [compound 103] | 19 |
| CCOC(=O)C(C)OC1=C(O)C(=O)O[C@@H]1[C@@H](O)CO (stereo partly drawn) [compound 108] | 19 |
| O=C1O[C@H]([C@@H](O)CO)C(OCC(=O)c2ccccc2)=C1O [compound 112, L-3-O-benzoylmethylascorbic acid] | 23 |
| O=C1O[C@H]([C@@H](O)CO)C(OCc2cccnc2)=C1O [compound 113, L-3-O-(3-picoyl)ascorbic acid] | 23 |
| O=C(O)CCCCCCCCCCOC1=C(O)C(=O)O[C@@H]1[C@@H](O)CO [compound 114] | 24 |

More lines, now with the values ahead:

| IC50 [µM] | SMILES |
| --- | --- |
| 23 | CCCCOC1=C(O)C(=O)O[C@@H]1[C@@H](O)CO [compound 104] |
| 20 | CCOC(=O)CCCCOC1=C(O)C(=O)O[C@@H]1[C@@H](O)CO [compound 105] |
| 21 | CCOC(=O)CCCOC1=C(O)C(=O)O[C@@H]1[C@@H](O)CO [compound 106] |
| 27 | O=C(O)CCCOC1=C(O)C(=O)O[C@@H]1[C@@H](O)CO [compound 107] |
| 18 | CCCCOC(=O)COC1=C(O)C(=O)O[C@@H]1[C@@H](O)CO [compound 109] |
| 23 | CCCCCCCCCCOC(=O)COC1=C(O)C(=O)O[C@@H]1[C@@H](O)CO [compound 110] |
| 22 | CCOC(=O)COC1=C(O)C(=O)O[C@@H]1[C@@H](O)CO [compound 111] |
| 22 | CC(=O)COC1=C(O)C(=O)O[C@@H]1[C@@H](O)CO [compound 115] |
